ChEMBL document CHEMBL5120829, “Discovery and structural optimization of potent epidermal growth factor receptor (EGFR) inhibitors against L858R/T790M/C797S resistance mutation for lung cancer treatment” (Eur J Med Chem, 2022)
Active and inactive are the calls of the source. The rule behind the calls is not given here.

How the values were obtained:
[1] = Clearance in overnight fasted Sprague-Dawley rat at 20 mg/kg, iv by HPLC analysis; format: ADME, organism-based; details: in vivo
[2] = test system: Epidermal growth factor receptor (Homo sapiens), P00533 [L858R,T790M,C797S]; test: Inhibition of EGFR L858R/T790M/C797S mutant (unknown origin) at 0.5 uM relative to control
[3] = test system: Epidermal growth factor receptor (Homo sapiens), P00533 [L858R,T790M,C797S]; test: Inhibition of EGFR L858R/T790M/C797S mutant (unknown origin) at 1 uM relative to control
[4] = AUC(0 to infinity) in overnight fasted Sprague-Dawley rat at 20 mg/kg, iv by HPLC analysis; format: ADME, organism-based; set-up: time infinity, dose 20 mg/kg, route iv; details: in vivo
[5] = Volume of distribution at steady state in overnight fasted Sprague-Dawley rat at 20 mg/kg, iv by HPLC analysis; format: ADME, organism-based; details: in vivo, read-out: Vdss
[6] = biological target: Epidermal growth factor receptor (Homo sapiens, UniProt P00533, C797S/L858R/T790M); test: Inhibition of EGFR L858R/T790M/C797S mutant (unknown origin)
PC-9 [7] = test: Induction of apoptosis in human PC-9 cells expressing EGFR L858R/T790M/C797S mutant assessed as dead cells at 0.05 uM incubated for 24 hrs by annexin-V/propidium iodide staining-based flow cytometry analysis (reference value: 0.43 %); format: functional
PC-9 [8] = test: Antitumor activity against human PC-9 cells expressing EGFR L858R/T790M/C797S mutant xenografted in BALB/c nude mouse assessed as reduction in tumor weight at 10 to 40 mg/kg, po measured every day for 18 days by digital vernier caliper analysis; format: functional, organism-based; details: dose 10-40 mg/kg, time 18.0 day
[9] = biological target: Signal transducer and activator of transcription 3 (Homo sapiens) (UniProt P40763); test: Inhibition of STAT3 phosphorylation in human PC-9 cells expressing EGFR L858R/T790M/C797S mutant at 0.01 to 1 uM by Western blot analysis; format: cell-based; details: dose 0.01-1 µM
A-431 = test: Antiproliferative activity against human A-431 cells assessed as inhibition of cell growth incubated for 72 hrs by CCK-8 assay; format: functional, cell-based; details: A-431, 72 h
[10] = Volume of distribution at steady state in overnight fasted Sprague-Dawley rat at 20 mg/kg, po by HPLC analysis; format: ADME, organism-based; details: in vivo
PC-9 [11] = test: Induction of apoptosis in human PC-9 cells expressing EGFR L858R/T790M/C797S mutant assessed as viable cells at 0.25 uM incubated for 24 hrs by annexin-V/propidium iodide staining-based flow cytometry analysis (reference value: 99.1 %); format: functional; details: Homo sapiens, PC-9, read-out: Activity
PC-9 [12] = test: Induction of apoptosis in human PC-9 cells expressing EGFR L858R/T790M/C797S mutant assessed as late apoptotic cells at 0.05 uM incubated for 24 hrs by annexin-V/propidium iodide staining-based flow cytometry analysis (reference value: 0.14 %); format: functional
[13] = biological target: Serine/threonine-protein kinase AKT (Homo sapiens) (UniProt P31751+Q9Y243+P31749); test: Inhibition of AKT phosphorylation in human PC-9 cells expressing EGFR L858R/T790M/C797S mutant at 0.01 to 1 uM by Western blot analysis; format: cell-based; details: dose 0.01-1 µM
PC-9 [14] = test: Antitumor activity against human PC-9 cells expressing EGFR L858R/T790M/C797S mutant xenografted in po dosed BALB/c nude mouse assessed as inhibition of tumor growth measured every other day for 18 days by digital vernier caliper analysis; format: functional, organism-based; details: dose 10-40 mg/kg, time 18.0 day, DDE = dose-dependent effect
PC-9 [15] = test: Induction of apoptosis in human PC-9 cells expressing EGFR L858R/T790M/C797S mutant assessed as late apoptotic cells at 0.01 uM incubated for 24 hrs by annexin-V/propidium iodide staining-based flow cytometry analysis (reference value: 0.14 %); format: functional
PC-9 [16] = test: Antiproliferative activity against human PC-9 cells expressing EGFR L858R/T790M/C797S mutant assessed as inhibition of cell growth incubated for 72 hrs by CCK-8 assay; format: functional, cell-based; details: PC-9, 72 h
[17] = Oral bioavailability in overnight fasted Sprague-Dawley rat at 20 mg/kg by HPLC analysis; format: ADME, organism-based; details: in vivo
PC-9 [18] = test: Induction of apoptosis in human PC-9 cells expressing EGFR L858R/T790M/C797S mutant assessed as early apoptotic cells at 0.25 uM incubated for 24 hrs by annexin-V/propidium iodide staining-based flow cytometry analysis (reference value: 0.3 %); format: functional
[19] = Half life in overnight fasted Sprague-Dawley rat at 20 mg/kg, iv by HPLC analysis; format: ADME, organism-based; details: in vivo
PC-9 [20] = test: Induction of apoptosis in human PC-9 cells expressing EGFR L858R/T790M/C797S mutant assessed as dead cells at 0.01 uM incubated for 24 hrs by annexin-V/propidium iodide staining-based flow cytometry analysis (reference value: 0.43 %); format: functional
[21] = Half life in overnight fasted Sprague-Dawley rat at 20 mg/kg, po by HPLC analysis; format: ADME, organism-based; details: in vivo
[22] = Tmax in overnight fasted Sprague-Dawley rat at 20 mg/kg, iv by HPLC analysis; format: ADME, organism-based; details: in vivo
PC-9 [23] = test: Induction of apoptosis in human PC-9 cells expressing EGFR L858R/T790M/C797S mutant assessed as dead cells at 0.25 uM incubated for 24 hrs by annexin-V/propidium iodide staining-based flow cytometry analysis (reference value: 0.43 %); format: functional
PC-9 [24] = test: Cell cycle arrest in human PC-9 cells expressing EGFR L858R/T790M/C797S mutant assessed as increase in accumulation of cells at G0/G1 phase at 0.01 to 1 uM incubated for 24 hrs by RNase/PI staining based flow cytometry analysis; format: functional; details: dose 0.01-1 µM
[25] = test system: Epidermal growth factor receptor (Homo sapiens), P00533 [L858R,T790M,C797S]; test: Inhibition of EGFR phosphorylation in human PC-9 cells expressing EGFR L858R/T790M/C797S mutant at 0.01 to 1 uM by Western blot analysis; format: cell-based; details: dose 0.01-1 µM
[26] = Cmax in overnight fasted Sprague-Dawley rat at 20 mg/kg, iv by HPLC analysis; format: ADME, organism-based; set-up: dose 20 mg/kg, route iv; details: in vivo
[27] = MRT (0 to infinity) in overnight fasted Sprague-Dawley rat at 20 mg/kg, po by HPLC analysis; format: ADME, organism-based; details: in vivo
PC-9 [28] = test: Induction of apoptosis in human PC-9 cells expressing EGFR L858R/T790M/C797S mutant assessed as viable cells at 0.01 uM incubated for 24 hrs by annexin-V/propidium iodide staining-based flow cytometry analysis (reference value: 99.1 %); format: functional; details: read-out: Activity
[29] = AUC(0 to infinity) in overnight fasted Sprague-Dawley rat at 20 mg/kg, po by HPLC analysis; format: ADME, organism-based; set-up: time infinity, dose 20 mg/kg, route po; details: in vivo
[30] = Clearance in overnight fasted Sprague-Dawley rat at 20 mg/kg, po by HPLC analysis; format: ADME, organism-based; details: in vivo
PC-9 [31] = test: Induction of apoptosis in human PC-9 cells expressing EGFR L858R/T790M/C797S mutant assessed as early apoptotic cells at 0.01 uM incubated for 24 hrs by annexin-V/propidium iodide staining-based flow cytometry analysis (reference value: 0.3 %); format: functional
[32] = Tmax in overnight fasted Sprague-Dawley rat at 20 mg/kg, po by HPLC analysis; format: ADME, organism-based; details: in vivo
PC-9 [33] = test: Induction of apoptosis in human PC-9 cells expressing EGFR L858R/T790M/C797S mutant assessed as late apoptotic cells at 0.25 uM incubated for 24 hrs by annexin-V/propidium iodide staining-based flow cytometry analysis (reference value: 0.14 %); format: functional
[34] = Toxicity in BALB/c nude mouse xenografted with human PC-9 cells expressing EGFR L858R/T790M/C797S mutant assessed as body weight loss at 10 to 40 mg/kg, po measured every day for 18 days; format: organism-based; details: in vivo, 432 h, dose 10-40 mg/kg, time 18 day
A549 = test: Antiproliferative activity against human A549 cells assessed as inhibition of cell growth incubated for 72 hrs by CCK-8 assay; format: functional, cell-based; details: A549, 72 h
PC-9 [35] = test: Induction of apoptosis in human PC-9 cells expressing EGFR L858R/T790M/C797S mutant assessed as viable cells at 0.05 uM incubated for 24 hrs by annexin-V/propidium iodide staining-based flow cytometry analysis (reference value: 99.1 %); format: functional; details: read-out: Activity
PC-9 [36] = test: Induction of apoptosis in human PC-9 cells expressing EGFR L858R/T790M/C797S mutant assessed as early apoptotic cells at 0.05 uM incubated for 24 hrs by annexin-V/propidium iodide staining-based flow cytometry analysis (reference value: 0.3 %); format: functional
[37] = Cmax in overnight fasted Sprague-Dawley rat at 20 mg/kg, po by HPLC analysis; format: ADME, organism-based; set-up: dose 20 mg/kg, route po; details: in vivo
[38] = MRT (0 to infinity) in overnight fasted Sprague-Dawley rat at 20 mg/kg, iv by HPLC analysis; format: ADME, organism-based; details: in vivo

Chain of Epidermal growth factor receptor (Homo sapiens), P00533 [L858R,T790M,C797S] (P00533 whole entry T790M/C797S/L858R): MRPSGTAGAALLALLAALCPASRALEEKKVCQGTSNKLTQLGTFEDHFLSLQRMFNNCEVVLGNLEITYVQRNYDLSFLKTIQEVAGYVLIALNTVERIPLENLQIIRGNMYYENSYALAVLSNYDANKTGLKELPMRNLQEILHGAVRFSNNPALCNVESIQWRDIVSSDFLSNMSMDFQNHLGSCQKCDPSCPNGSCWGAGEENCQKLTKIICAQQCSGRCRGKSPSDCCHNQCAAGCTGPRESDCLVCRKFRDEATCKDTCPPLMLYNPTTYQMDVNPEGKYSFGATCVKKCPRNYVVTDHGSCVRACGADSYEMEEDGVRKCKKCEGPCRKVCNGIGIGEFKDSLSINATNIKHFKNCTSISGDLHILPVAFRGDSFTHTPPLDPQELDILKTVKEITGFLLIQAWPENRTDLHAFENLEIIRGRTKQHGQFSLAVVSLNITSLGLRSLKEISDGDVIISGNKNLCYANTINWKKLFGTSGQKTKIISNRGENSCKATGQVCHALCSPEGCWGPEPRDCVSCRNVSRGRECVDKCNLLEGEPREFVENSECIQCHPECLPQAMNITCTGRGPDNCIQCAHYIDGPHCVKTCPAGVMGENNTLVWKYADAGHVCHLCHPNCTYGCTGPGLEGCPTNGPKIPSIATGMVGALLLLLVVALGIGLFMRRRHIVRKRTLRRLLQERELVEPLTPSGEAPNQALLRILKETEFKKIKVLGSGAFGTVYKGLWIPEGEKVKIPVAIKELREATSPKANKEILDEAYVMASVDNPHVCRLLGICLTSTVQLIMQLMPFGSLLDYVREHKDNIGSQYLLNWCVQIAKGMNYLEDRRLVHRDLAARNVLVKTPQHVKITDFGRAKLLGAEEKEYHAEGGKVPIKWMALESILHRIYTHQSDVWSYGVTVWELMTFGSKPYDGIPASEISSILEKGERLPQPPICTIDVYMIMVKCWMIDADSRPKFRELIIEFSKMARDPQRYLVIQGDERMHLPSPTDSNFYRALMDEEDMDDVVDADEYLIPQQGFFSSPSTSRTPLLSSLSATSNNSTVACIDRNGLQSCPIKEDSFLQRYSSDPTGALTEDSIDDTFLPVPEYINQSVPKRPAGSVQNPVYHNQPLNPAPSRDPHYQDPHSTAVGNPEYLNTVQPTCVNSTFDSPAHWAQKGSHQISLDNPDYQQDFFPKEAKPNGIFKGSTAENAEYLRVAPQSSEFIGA
Chain of Epidermal growth factor receptor (P00533 25-1210 T790M/C797S/L858R limits assumed): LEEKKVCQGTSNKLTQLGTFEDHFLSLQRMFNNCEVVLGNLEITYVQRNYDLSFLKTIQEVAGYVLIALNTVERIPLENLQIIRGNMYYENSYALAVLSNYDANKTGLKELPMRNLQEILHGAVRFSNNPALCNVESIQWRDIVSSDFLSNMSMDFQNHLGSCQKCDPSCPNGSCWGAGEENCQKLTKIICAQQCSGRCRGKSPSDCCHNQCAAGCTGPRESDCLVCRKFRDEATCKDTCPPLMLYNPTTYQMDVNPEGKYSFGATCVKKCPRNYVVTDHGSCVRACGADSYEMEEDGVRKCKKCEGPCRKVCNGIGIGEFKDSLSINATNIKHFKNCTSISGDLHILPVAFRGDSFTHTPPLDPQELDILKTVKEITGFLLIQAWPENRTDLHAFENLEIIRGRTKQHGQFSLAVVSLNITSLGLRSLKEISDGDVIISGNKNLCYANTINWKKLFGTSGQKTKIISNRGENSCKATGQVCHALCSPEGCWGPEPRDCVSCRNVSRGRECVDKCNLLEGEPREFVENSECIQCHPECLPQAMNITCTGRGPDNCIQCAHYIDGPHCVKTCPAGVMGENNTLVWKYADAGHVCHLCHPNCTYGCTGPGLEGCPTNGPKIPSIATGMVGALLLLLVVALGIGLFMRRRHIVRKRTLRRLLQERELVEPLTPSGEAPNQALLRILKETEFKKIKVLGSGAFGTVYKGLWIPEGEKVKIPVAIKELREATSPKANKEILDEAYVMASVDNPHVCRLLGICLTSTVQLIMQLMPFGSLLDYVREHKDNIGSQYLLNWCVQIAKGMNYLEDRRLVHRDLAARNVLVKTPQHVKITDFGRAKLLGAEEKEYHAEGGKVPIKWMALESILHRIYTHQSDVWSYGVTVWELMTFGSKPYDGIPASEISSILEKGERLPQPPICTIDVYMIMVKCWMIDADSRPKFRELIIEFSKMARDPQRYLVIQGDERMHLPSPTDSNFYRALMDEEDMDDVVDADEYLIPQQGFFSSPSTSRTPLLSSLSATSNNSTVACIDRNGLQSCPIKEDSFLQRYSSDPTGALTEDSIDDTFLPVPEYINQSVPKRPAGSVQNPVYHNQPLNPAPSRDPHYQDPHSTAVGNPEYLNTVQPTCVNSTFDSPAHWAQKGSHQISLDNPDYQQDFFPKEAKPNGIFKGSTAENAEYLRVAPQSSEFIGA
Chain of Serine/threonine-protein kinase AKT (Homo sapiens) (P31749 whole entry, looked up): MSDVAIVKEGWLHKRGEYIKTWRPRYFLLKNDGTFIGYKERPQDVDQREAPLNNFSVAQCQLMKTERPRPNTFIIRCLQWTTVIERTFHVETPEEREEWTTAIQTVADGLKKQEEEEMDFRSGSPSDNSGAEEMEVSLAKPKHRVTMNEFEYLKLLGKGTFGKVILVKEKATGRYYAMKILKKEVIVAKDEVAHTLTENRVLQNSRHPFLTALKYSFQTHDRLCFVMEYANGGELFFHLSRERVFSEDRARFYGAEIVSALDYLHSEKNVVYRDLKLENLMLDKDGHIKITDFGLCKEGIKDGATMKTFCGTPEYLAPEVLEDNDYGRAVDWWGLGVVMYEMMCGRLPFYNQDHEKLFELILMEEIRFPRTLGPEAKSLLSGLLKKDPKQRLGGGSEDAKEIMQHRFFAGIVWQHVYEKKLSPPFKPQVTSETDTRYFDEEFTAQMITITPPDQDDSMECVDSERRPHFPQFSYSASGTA
Chain of Serine/threonine-protein kinase AKT (Homo sapiens) (P31751 whole entry, looked up): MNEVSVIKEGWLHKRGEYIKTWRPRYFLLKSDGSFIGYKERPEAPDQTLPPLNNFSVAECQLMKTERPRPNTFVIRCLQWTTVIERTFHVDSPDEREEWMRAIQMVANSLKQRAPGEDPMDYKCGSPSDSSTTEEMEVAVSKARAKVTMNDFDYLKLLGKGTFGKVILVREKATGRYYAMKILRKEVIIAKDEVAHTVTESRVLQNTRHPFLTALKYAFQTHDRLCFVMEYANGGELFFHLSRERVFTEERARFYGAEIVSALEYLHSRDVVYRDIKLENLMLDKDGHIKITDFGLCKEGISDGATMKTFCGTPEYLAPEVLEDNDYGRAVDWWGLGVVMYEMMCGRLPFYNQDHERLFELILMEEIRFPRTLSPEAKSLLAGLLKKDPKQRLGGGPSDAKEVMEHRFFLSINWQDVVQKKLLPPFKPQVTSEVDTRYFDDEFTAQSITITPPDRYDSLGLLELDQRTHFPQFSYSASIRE
Chain of Serine/threonine-protein kinase AKT (Homo sapiens) (Q9Y243 whole entry, looked up): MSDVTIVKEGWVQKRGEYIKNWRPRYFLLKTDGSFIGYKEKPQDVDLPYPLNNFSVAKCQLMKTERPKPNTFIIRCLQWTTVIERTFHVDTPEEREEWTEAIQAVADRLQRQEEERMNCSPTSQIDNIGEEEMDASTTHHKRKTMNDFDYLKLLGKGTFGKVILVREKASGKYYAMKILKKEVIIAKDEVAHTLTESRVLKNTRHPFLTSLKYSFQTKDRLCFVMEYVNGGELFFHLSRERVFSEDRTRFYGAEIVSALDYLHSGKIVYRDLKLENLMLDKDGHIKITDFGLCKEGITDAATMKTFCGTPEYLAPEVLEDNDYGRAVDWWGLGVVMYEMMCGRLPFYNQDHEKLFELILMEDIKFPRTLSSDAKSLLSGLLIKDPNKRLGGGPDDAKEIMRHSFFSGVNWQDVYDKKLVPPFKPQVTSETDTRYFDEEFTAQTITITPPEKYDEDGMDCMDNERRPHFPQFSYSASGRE
Chain of Signal transducer and activator of transcription 3 (Homo sapiens) (P40763 whole entry): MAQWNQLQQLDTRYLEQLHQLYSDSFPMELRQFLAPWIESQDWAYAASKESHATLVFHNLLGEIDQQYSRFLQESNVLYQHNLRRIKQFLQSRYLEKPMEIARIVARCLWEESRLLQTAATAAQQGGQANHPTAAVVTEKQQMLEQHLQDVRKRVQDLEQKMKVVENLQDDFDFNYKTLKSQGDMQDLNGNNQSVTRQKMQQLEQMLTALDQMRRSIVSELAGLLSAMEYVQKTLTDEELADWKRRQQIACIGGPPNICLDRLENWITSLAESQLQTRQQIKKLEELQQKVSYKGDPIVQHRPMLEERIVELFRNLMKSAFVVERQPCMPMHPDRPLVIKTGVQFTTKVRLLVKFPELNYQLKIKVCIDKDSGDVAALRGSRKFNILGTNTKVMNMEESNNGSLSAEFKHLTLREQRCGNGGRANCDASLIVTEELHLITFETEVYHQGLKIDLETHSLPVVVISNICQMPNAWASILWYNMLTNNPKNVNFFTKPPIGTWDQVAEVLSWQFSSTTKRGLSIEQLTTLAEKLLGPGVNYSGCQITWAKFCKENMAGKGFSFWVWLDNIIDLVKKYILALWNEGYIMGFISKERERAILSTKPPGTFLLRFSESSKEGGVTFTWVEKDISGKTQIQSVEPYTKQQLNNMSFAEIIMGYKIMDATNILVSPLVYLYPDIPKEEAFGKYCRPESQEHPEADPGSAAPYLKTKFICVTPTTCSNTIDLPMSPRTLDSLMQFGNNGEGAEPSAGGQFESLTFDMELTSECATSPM

For `CN1CCN(c2ccc(Nc3ncc4cc(CNc5ccccc5)n(C5CCCC5)c4n3)cc2)CC1`, the clearance [1] was 21.2 mL/min/kg, the inhibition [2] was 83% and the inhibition [3] was 90%. It also gave an AUC(0-inf) [4] of 15900 ng·h/mL, a Vd [5] of 16 L/kg and an IC50 [6] of 0.017 µM. The Activity (PC-9 [7]) was 1.11%, the Activity (PC-9 [8]) was “Active” and the inhibition [9] was “Active”. The IC50 (A-431) was 2.97 µM, the Vdss [10] was 28.101 L/kg and the viability at 0.25 µM (PC-9 [11]) was 75.4%. The Activity (PC-9 [12]) was 5.21%, the inhibition [13] was “Active” and the Activity (PC-9 [14]) was “Dde”. The Activity (PC-9 [15]) was 4.53%, the IC50 (PC-9 [16]) was 0.013 µM and the bioavailability [17] was 66%. The Activity (PC-9 [18]) was 6.8%, the half-life [19] was 8.92 h and the Activity (PC-9 [20]) was 1.14%. It also gave a half-life [21] of 11.2 h, a Tmax [22] of 4.98 min and an Activity (PC-9 [23]) of 7.03%. The Activity (PC-9 [24]) was “Active”, the inhibition [25] was “Active” and the Cmax [26] was 6840 ng/mL. The MRT inf [27] was 16.8 h, the viability at 0.01 µM (PC-9 [28]) was 93.1% and the AUC(0-inf) [29] was 10500 ng·h/mL. The CL/F [30] was 35.9 mL/min/kg, the Activity (PC-9 [31]) was 1.21% and the Tmax [32] was 6 h. For the same molecule, the Activity (PC-9 [33]) was 10.7%, the Activity [34] was “Non-Toxic” and the IC50 (A549) was 1.03 µM. It also gave a viability at 0.05 µM (PC-9 [35]) of 88.2%, an Activity (PC-9 [36]) of 5.43% and a Cmax [37] of 770 ng/mL. It also gave an MRT inf [38] of 16.4 h.
